# Like-named read-outs stand apart in the source and are kept apart here.
# How the values were obtained:
# [1] = Test 3: acute toxicity; conditions: mouse, in vivo
# Description: In the acute toxicity tests, male mice (weight: 22 to 25 g) were used in groups of 10 each.
# Eash active ingredient was dissolved in olive oil and the solution was orally administrated in a volume corresponding to the body weight.
# LD50 was calculated by the area method from the mortal percent after 72 hours from the administration.
# The compound numbers are the same with those of Tables 1 and 2.
# [2] = tested on: Normal mice; assay: Test 1: hypolipidemic activity in normal mice; format: in vivo, ICR type male mice; conditions: Mus musculus, 24 h, Table 4, reference compounds (IV), 1 time adm.
# [3] = tested on: Rats with hyperlipidemia; assay: Test 2: antihyperlipidemic activity in rats with dietary hyperlipidemia; format: in vivo, Wister type male rats; conditions: 200 mg/kg oral, 4 days adm.
# Description: The antihyperlipidemic activity in rats with dietary hyperlipidemia.
# In the tests, Wister type male rats (weight: 140 g) were used in groups of 6 each.
# A feed containing 2% of cholesterol, 1% of sodium cholate and 5% of cocconut oil was given for 4 days to cause hyperlipidemia.
# Each active ingredient was suspended in a 1% aqueous solution of Tween 80 and the suspension was orally administrated in a dose of 100 mg/Kg or 200 mg/Kg once daily for 4 days starting with the supply of the cholesterol supplemented diet.
# After 24 hours from the final administration, blood was sampled and the concentration of total cholesterols and the concentration of triglyceride were measured by the methods of Test 1.
# [4] = tested on: Normal mice; assay: Test 1: hypolipidemic activity in normal mice; format: in vivo, ICR type male mice; conditions: 200 mg/kg oral, 1 time adm., 24 h
# Description: The hypolipidemic activity in normal mice (lowering effect of normal blood lipid level).
# In the tests, ICR type male mice (weight: about 35 g) were used in groups of 6 each.
# Each active ingredient was suspended in a 1% aqueous solution of Tween-80 (polyoxyethylene sorbitane monoalkylate) (Atlas Co.) and the suspension was orally administrated in a dose of 200 mg/Kg.
# After 24 hours from the administration, blood was sampled and the concentration of total cholesterols in blood-plasma was measured by the method described in Clinical chemistry Vol. 22 page 393 (1968) and the concentraton of triglyceride (neutral fat) was measured by Fletcher method (Clinica Chimica Acta) Vol. 10 page 451 (1964).
# As the active ingredients, the compounds (I) and ethyl-α-(p-chlorophenoxy)-isobutylate having the formula [drawing 17] were used.
# The same tests for hypolipidemic activity (lowering of blood lipid level) were carried out by using the reference compounds (IV).
# [5] = found by the administration of ethyl-α-(p-chlorophenoxy)-isobutyrate; cited from earlier work
# [6] = po, Table 4, reference compounds (IV), read-out: LD50
# [7] = read-out: Total cholesterol (lowering of blood lipid level)
# [8] = read-out: Triglyceride (lowering of blood lipid level)
# [9] = series (b), comparison with compounds 2-12 (P-control 92.0, Normal 37.6)
# [10] = series (b), comparison with compounds 2-12 (P-control 260.0, Normal 57.2)
# [11] = series (b), comparison with compounds 2-12 (Normal 52.0)
# [12] = series (b), comparison with compounds 2-12 (Normal 69.3)
# [13] = Table 3, male mice, oral in olive oil, 72 hours, read-out: LD50 oral
# [14] = series (a), comparison with compound 1 (P-control 141.9)
# [15] = series (a), comparison with compound 1 (P-control 302.4)
# [16] = series (a), comparison with compound 1 (Normal 62.6)
# [17] = series (a), comparison with compound 1 (Normal 83.6)
SMILES,"LD50 at 72 h [1, 6]","inhibition in vivo at 200 mg/kg [2, 7]","inhibition in vivo at 200 mg/kg [2, 8]","Decrease of triglyceride [3, 9]","Serum total cholesterol concentration [3, 10]","Decrease of triglyceride [4, 11]","Decrease of cholesterol [4, 12]","LD50 at 72 h [1, 13]",further results
CCOC(=O)C(Oc1ccc(C(=O)c2cccc(F)c2)cc1)c1ccccc1 (centres unmarked) [compound 3],2000 mg/kg,16%,19%,,,,,,
CCOC(=O)C(Oc1ccc(C(=O)c2ccccc2)cc1)C1CCCCC1 (centres unmarked) [Invention Compound 3],,,,81.6 ± 7.3 mg/dL,211.0 ± 5.5 mg/dL,60.1 ± 2.8 mg/dL,66.6 ± 1.9 mg/dL,1000 mg/kg,
"CCOC(=O)C(Oc1ccc(C(=O)c2cccc(Cl)c2)cc1)C1CCCCC1 (centres unmarked) [Invention Compound 7, Ethyl 2-[p-(3-chlorobenzoyl)-phenoxy]-cyclohexyl acetate]",,,,52.1 ± 9.0 mg/dL,123.8 ± 9.1 mg/dL,45.5 ± 5.4 mg/dL,56.4 ± 5.1 mg/dL,2500 mg/kg,
O=C(c1ccccc1)c1ccc(OC(C(=O)O)c2ccccc2)cc1 (centres unmarked) [compound 20],> 3000 mg/kg,19%,7%,,,,,,
"CCOC(=O)C(Oc1ccc(C(=O)c2ccc(F)cc2)cc1)C1CCCCC1 (centres unmarked) [Invention Compound 2, Ethyl-2-[p-(4-fluorobenzoyl)-phenoxy]-cyclohexyl acetate]",,,,88.5 ± 12.3 mg/dL,215.3 ± 6.7 mg/dL,,,1000 mg/kg,
CCOC(=O)C(Oc1ccc(C(=O)c2cccc(C)c2)cc1)C1CCCCC1 (centres unmarked) [Invention Compound 10],,,,73.6 ± 10.0 mg/dL,196.1 ± 13.2 mg/dL,,,3000 mg/kg,
CCOC(=O)C(Oc1ccc(C(=O)c2ccccc2F)cc1)C1CCCCC1 (centres unmarked) [Invention Compound 6],,,,89.2 ± 15.6 mg/dL,243.0 ± 6.1 mg/dL,,,1000 mg/kg,
CCOC(=O)C(Oc1ccc(C(=O)c2ccc(OC)cc2)cc1)C1CCCCC1 (centres unmarked) [Invention Compound 4],,,,88.7 ± 8.9 mg/dL,187.0 ± 18.1 mg/dL,38.2 ± 2.5 mg/dL,51.9 ± 2.6 mg/dL,2500 mg/kg,
"CCOC(=O)C(C)(C)Oc1ccc(Cl)cc1 [***, ethyl-α-(p-chlorophenoxy)-isobutylate, reference compound]",,15%,10%,62.5 ± 9.5 mg/dL,258.5 ± 16.0 mg/dL,46.8 ± 3.5 mg/dL,55.4 ± 3.1 mg/dL,1500 mg/kg,"Decrease of triglyceride [3, 14]: 80.9 ± 17.8 mg/dL; Serum total cholesterol concentration [3, 15]: 285.5 ± 25.3 mg/dL; Decrease of triglyceride [4, 16]: 46.6 ± 7.3 mg/dL; Decrease of cholesterol [4, 17]: 69.0 ± 5.3 mg/dL; hepatic disease (hepatitis) [5]: found"
CCOC(=O)C(Oc1ccc(C(=O)c2cccc(F)c2)cc1)C1CCCCC1 (centres unmarked) [Invention Compound 5],,,,90.3 ± 16.8 mg/dL,147.5 ± 8.3 mg/dL,60.0 ± 4.2 mg/dL,54.5 ± 2.6 mg/dL,3500 mg/kg,
"CCOC(=O)C(Oc1ccc(C(=O)c2ccc(Cl)cc2)cc1)C1CCCCC1 (centres unmarked) [Invention Compound 1, Ethyl 2-[p-(4-chlorobenzoyl)-phenoxy]-cyclohexyl acetate]",,,,,,,,2500 mg/kg,"Decrease of triglyceride [3, 14]: 69.7 ± 13.8 mg/dL; Serum total cholesterol concentration [3, 15]: 126.5 ± 8.1 mg/dL; Decrease of triglyceride [4, 16]: 52.2 ± 7.6 mg/dL; Decrease of cholesterol [4, 17]: 59.4 ± 4.8 mg/dL"
"CCOC(=O)C(Oc1ccc(C(=O)c2ccccc2Cl)cc1)c1ccccc1 (centres unmarked) [compound 7, Ethyl 2-[p-(2-chlorobenzoyl)-phenoxy]phenyl acetate]",> 10000 mg/kg,16%,8%,,,,,,
CCOC(=O)C(Oc1ccc(C(=O)c2ccc(F)cc2)cc1)c1ccccc1 (centres unmarked) [compound 5],1500 mg/kg,21%,1%,,,,,,
"CCOC(=O)C(Oc1ccc(C(=O)c2ccc(C)cc2)cc1)C1CCCCC1 (centres unmarked) [Invention Compound 9, Ethyl 2-[p-(4-methylbenzoyl)-phenoxy]-cyclohexyl acetate]",,,,58.5 ± 6.7 mg/dL,188.7 ± 18.4 mg/dL,56.9 ± 6.1 mg/dL,59.1 ± 3.4 mg/dL,3500 mg/kg,
"CCOC(=O)C(Oc1ccc(C(=O)c2ccc(Cl)cc2)cc1)c1ccccc1 (centres unmarked) [compound 11, Ethyl 2-[p-(4-chlorobenzoyl)-phenoxy]phenyl acetate]",3000 mg/kg,24%,52%,,,,,,
"CCOC(=O)C(Oc1ccc(C(=O)c2ccccc2C)cc1)c1ccccc1 (centres unmarked) [compound 13, ethyl 2-[p-(2-methylbenzoyl)-phenoxy] phenyl acetate]",> 2000 mg/kg,27.7%,41.9%,,,,,,
CCOC(=O)C(Oc1ccc(C(=O)c2ccccc2C)cc1)C1CCCCC1 (centres unmarked) [Invention Compound 11],,,,89.4 ± 7.7 mg/dL,203.5 ± 12.1 mg/dL,,,700 mg/kg,
"Cc1ccccc1C(=O)c1ccc(OC(C(=O)O)c2ccccc2)cc1 (centres unmarked) [compound 14, 2-[P-(2-methylbenzoyl)-phenoxy]phenyl acetic acid]",,21%,2%,,,,,,
CCOC(=O)C(Oc1ccc(C(=O)c2ccccc2Cl)cc1)C1CCCCC1 (centres unmarked) [Invention Compound 8],,,,75.6 ± 8.3 mg/dL,185.4 ± 7.1 mg/dL,,,1000 mg/kg,
CCOC(=O)C(Oc1ccc(C(=O)c2ccccc2F)cc1)c1ccccc1 (centres unmarked) [compound 1],1500 mg/kg,18%,36%,,,,,,
